Biological target: T1, acetohydroxyacid synthase (AHAS) (Arabidopsis thaliana, UniProt P17597)
T1 construct: gene ALS; wild-type
T1 sequence (P17597 56-670): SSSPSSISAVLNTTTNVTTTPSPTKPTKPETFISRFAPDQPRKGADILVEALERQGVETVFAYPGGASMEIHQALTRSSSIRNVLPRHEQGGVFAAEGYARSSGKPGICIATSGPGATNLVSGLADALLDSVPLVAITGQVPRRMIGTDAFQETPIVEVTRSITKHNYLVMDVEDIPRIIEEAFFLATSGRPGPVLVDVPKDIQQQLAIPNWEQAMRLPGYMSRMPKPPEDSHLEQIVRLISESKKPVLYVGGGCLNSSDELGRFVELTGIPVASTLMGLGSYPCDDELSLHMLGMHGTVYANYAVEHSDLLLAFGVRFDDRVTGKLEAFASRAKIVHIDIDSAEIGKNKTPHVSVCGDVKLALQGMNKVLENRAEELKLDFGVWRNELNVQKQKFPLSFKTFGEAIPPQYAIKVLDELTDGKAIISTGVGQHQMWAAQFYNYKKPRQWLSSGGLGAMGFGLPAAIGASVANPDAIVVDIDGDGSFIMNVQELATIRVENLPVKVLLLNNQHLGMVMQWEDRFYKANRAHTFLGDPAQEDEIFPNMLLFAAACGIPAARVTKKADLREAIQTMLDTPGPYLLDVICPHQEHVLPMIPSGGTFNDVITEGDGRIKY
Test: purified AtAHAS colorimetric activity assay ([…] nm)
Type: biochemical

IC50 [µM] | SMILES
343 | COc1cc(OC)nc(Oc2ccccc2CNc2ccc(-c3ccccc3)cc2)n1 [IIIa]
189 | COc1cc(OC)nc(Oc2ccccc2CNc2cccc(-c3ccccc3)c2)n1 [IIa]
157 | COc1cc(OC)nc(Oc2ccccc2CNc2ccccc2-c2ccccc2)n1 [Ia]
593 | COc1cc(OC)nc(Oc2ccccc2CNc2ccccc2)n1 [PBA]
